In patent US20220389013A1, “PYRIDOPYRIMIDINONE COMPOUNDS AND APPLICATIONS THEREOF” (BeBetter Med Inc., priority 2020, published 2022):
Where a name gives a salt, the structure may show the parent alone.

Assays:
[1] = molecular target: T1, KRAS-G12C/SOS1 (Homo sapiens, UniProt P01116, G12C); assay: HTRF KRAS-G12C/SOS1 binding assay; conditions: 2 hours room temperature
T1 construct: purchased Cisbio #63ADK000CB16PEG
Protocol: 2) Diluted the compound to be tested with diluent into 10× stock solution, starting from a concentration of 10000 nM, diluting in 4-fold gradient and a total of 6 concentration gradients.
After incubated at room temperature for 15 minutes, added pre-mixed 5 uL of anti-Tag1-Tb^3+ and 5 uL of anti-Tag2-XL665. Sealed the plate and incubated at room temperature for 2 hours.
Data were processed by using Graphpad prism software.

[2] = system: H358 (KRAS G12C); assay: Tumor cell proliferation inhibition assay (CellTiter-Glo), H358; assay type: cell-based, Human; conditions: 10% fetal bovine serum
Method in brief: (§1)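 Growth was read as ATP by CellTiter-Glo luminescence, with inhibition normalised to DMSO (max) and medium-only (min) wells. IC50 came from sigmoidal dose-response fits.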

[3] = system: MIA-Paca2 (KRAS G12C); assay: Tumor cell proliferation inhibition assay (CellTiter-Glo), MIA-Paca2; assay type: cell-based, Human; conditions: 10% fetal bovine serum
Method in brief: as §1

[4] = system: H23 (KRAS G12C); assay: Tumor cell proliferation inhibition assay (CellTiter-Glo), H23; assay type: cell-based, Human; conditions: 10% fetal bovine serum
Protocol: The H358, H23 or MIA-Paca2 cells were digested, centrifuged and resuspended, and the cell density was measured with a Scepter automatic cell counter. Cells were diluted to a solution containing 44,000 cells per milliliter, then added to a 96-well culture plate at 90 μL per well. The 96-well plate was placed in a 5% CO2 incubator at 37° C., and after the cells were cultured for 24 hours, different concentrations of the compounds to be tested were added. Cells were incubated with compounds in the presence of 10% fetal bovine serum for 72 hours. The inhibition of cell growth was assessed by measuring ATP levels by using the CellTiter-Glo Luminescent Cell Viability Assay Kit (details in manufacturer's instructions). In brief, 30 μL of CellTiter-Glo reagent was added to each well and the plate was shaken for 10 minutes to induce cell lysis, then the fluorescent signal was detected and recorded with a Fluoroskan Ascent FL (Thermo). Maximum signal values were obtained from cells treated with DMSO for 72 hours. Minimum signal values were obtained with medium only (zero cell number). Inhibition rate %=(maximum signal value-compound signal value)/(maximum signal value-minimum signal value)×100%. Data were processed by using Graphpad prism5 software. IC50 values were calculated using a sigmoidal dose-response curve.

[5] = Pharmacokinetic (PK) experiment in rats by gavage; assay type: in vivo; conditions: rat, plasma, po, male SD rats, 20 mg/kg; for AUC(0-t): read-out: AUC0-24
[6] = Caco-2 cell transmembrane transport experiment; conditions: human; for efflux ratio at 90 min, 10 μM: Caco-2, pH 7.4; for Papp B→A at 90 min, 10 μM: basolateral to apical
Source text: (§2) In this experiment, a monolayer of Caco-2 cells was used to assess drug penetration. […] The apparent permeability coefficient from apical to basolateral (Papp A-B) and the basolateral to apical permeability coefficient (Papp B-A) of compounds represent the ability of the compound to be transported in both directions, respectively.
(§3) Apparent permeability coefficient (Papp)=(the volume of the receiver chamber/the filter surface area×culture time))×(the drug concentration of receiver chamber at the end of culture/(the drug concentration of donor chamber at the initial culture×dilution factor)
(§4) In this experiment, Millipore cell culture plates (PSHT 010 R5): membrane area=0.7 cm^2, recipient side volume=0.8 mL (A-to-B) or 0.4 mL (B-to-A), incubation time=90 minutes.

[7] = in vitro; conditions: human; for efflux ratio at 90 min, 10 μM: Caco-2, pH 7.4
Source text: as §2, §3, §4

[8] = system: H358 xenograft tumor; assay: H358 human non-small cell lung cancer subcutaneous mouse xenograft model, anticancer activity; assay type: in vivo, BALB/c nude mice; conditions: 100 mg/kg, po, qd, 26 days
Protocol: In this experiment, the anticancer activities of compounds 73-1 and 90-1 in the subcutaneous tumor model of H358 human non-small cell lung cancer xenograft mice, and the dose-response relationship of compound 73-1 in inhibiting the growth of H358 xenograft tumors were investigated. […] When H358 cells were cultured to a sufficient number, cells were collected. […] Vernier calipers were used to measure the size of the tumor. The formula for calculating the tumor volume is: tumor volume=(length×width^2)/2, and the formula for calculating the relative tumor proliferation rate T/C value is: T/C (%)=100×ΔT/ΔC (ΔT>0) or T/T (%)=100×ΔT/T0 (ΔT<0). ΔT is the difference of tumor volume in the treatment group, ΔC is the difference of tumor volume in the vehicle control group, and T0 is the tumor volume in the treatment group before administration.
The dosage of the all groups, except the vehicle control group, was 100 mg/kg, 10 mL/kg orally administered by gavage, once a day. […] All the groups were administered continuously for 26 days.

[9] = Caco-2, pH 7.4, Papp A-B Sample_01, 10 μM, pH 7.4, 37° C., 90 min, apical to basolateral
[10] = Caco-2, pH 7.4, Papp A-B Sample_02, 10 μM, pH 7.4, 37° C., 90 min, apical to basolateral
[11] = Caco-2, pH 7.4, Papp A-B mean value, 10 μM, pH 7.4, 37° C., 90 min, apical to basolateral
[12] = Caco-2, pH 7.4, Papp B-A Sample_01, 10 μM, pH 7.4, 37° C., 90 min
[13] = Caco-2, pH 7.4, Papp B-A Sample_02, 10 μM, pH 7.4, 37° C., 90 min
[14] = Caco-2, pH 7.4, Papp B-A mean value, 10 μM, pH 7.4, 37° C., 90 min
[15] = Caco-2, pH 7.4, apparent permeability coefficient Papp A-B, Caco-2
[16] = Caco-2, pH 7.4, Papp A-B Sample_01
[17] = Caco-2, pH 7.4, Papp A-B Sample_02
[18] = Caco-2, pH 7.4, Papp A-B mean value
[19] = Caco-2, pH 7.4, Papp B-A Sample_01
[20] = Caco-2, pH 7.4, Papp B-A Sample_02
[21] = Caco-2, pH 7.4, Papp B-A mean value

T1 sequence (P01116 1-188 isoform P01116-2 G12C): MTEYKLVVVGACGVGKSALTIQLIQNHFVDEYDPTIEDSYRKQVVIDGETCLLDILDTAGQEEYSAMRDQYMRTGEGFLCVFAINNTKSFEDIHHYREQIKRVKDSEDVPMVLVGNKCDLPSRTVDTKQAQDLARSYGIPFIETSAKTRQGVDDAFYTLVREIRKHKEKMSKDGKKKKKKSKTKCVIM

Compound | IC50 [1] | IC50 ([4]; Homo sapiens, 72 h) | AUC(0-inf) [5] | Cmax [5] | Tmax [5] | half-life [5] | AUC(0-t) [5] | melting point | IC50 ([2]; Homo sapiens, NCI-H358, 72 h) | IC50 ([3]; Homo sapiens, MIA PaCa-2, 72 h) | efflux ratio at 90 min, 10 μM [6] | Papp A→B at 90 min, 10 μM [6, 9] | Papp A→B at 90 min, 10 μM [6, 10] | Papp A→B at 90 min, 10 μM [6, 11] | Papp B→A at 90 min, 10 μM [6, 12] | Papp B→A at 90 min, 10 μM [6, 13] | Papp B→A at 90 min, 10 μM [6, 14] | Papp A→B at 90 min, 10 μM [6, 15] | other results
C=CC(=O)N1C[C@H](C)N(c2nc(=O)n(-c3c(C)ccnc3C(C)C)c3nc(-c4c(F)ccc5ccoc45)c(Cl)cc23)C[C@H]1C [Compound 90, 4-((2S,5R)-4-acryloyl-2,5-dimethylpiperazin-1-yl)-6-chloro-7-(6-fluorobenzofuran-7-yl)-1-(2-isopropyl-4-methylpyridin-3-yl)pyrido[2,3-d]pyrimidin-2(1H)-one] | 50 to 100 nM | < 10 nM | 20400 ng·h/mL | 5610 ng/mL | 1 h | 5.54 h | 20100 ng·h/mL | 167 to 169 °C | – | – | – | – | – | – | – | – | – | – | IC50 ([2]; 72 hours): < 10 nM; IC50 ([3]; 72 hours): 10 to 50 nM
C=CC(=O)N1C[C@H](C)N(c2nc(=O)n(-c3c(C)ccnc3C(C)C)c3nc(-c4c(F)c(F)cc5ccoc45)c(Cl)cc23)C[C@H]1C (single isomer, unassigned) [Compound 104-1] | < 50 nM | < 10 nM | 10500 ng·h/mL | 2590 ng/mL | 1 h | 4.35 h | 10300 ng·h/mL | – | < 10 nM | 10 to 50 nM | 1.92 | 11.2 ×10⁻⁶ cm/s | 10.4 ×10⁻⁶ cm/s | 10.8 ×10⁻⁶ cm/s | 22.1 ×10⁻⁶ cm/s | 19.5 ×10⁻⁶ cm/s | 20.8 ×10⁻⁶ cm/s | > 10 ×10⁻⁶ cm/s | –
C=CC(=O)N1CCN(c2nc(=O)n(-c3c(C)ccnc3C(C)C)c3nc(-c4c(F)ccc5ccoc45)c(F)cc23)[C@@H](C)C1 (single isomer, unassigned) [Compound 70-1] | 50 to 100 nM | – | 7910 ng·h/mL | 3530 ng/mL | 1 h | 2.77 h | 7890 ng·h/mL | – | – | – | 1.19 | 19 ×10⁻⁶ cm/s | 18.8 ×10⁻⁶ cm/s | 18.9 ×10⁻⁶ cm/s | 21.1 ×10⁻⁶ cm/s | 23.7 ×10⁻⁶ cm/s | 22.4 ×10⁻⁶ cm/s | > 10 ×10⁻⁶ cm/s | IC50 ([2]; 72 hours): 10 to 50 nM; IC50 ([3]; 72 hours): 10 to 50 nM; IC50 ([4]; 72 hours): < 10 nM
CC[C@H]1OC(=O)[C@H](C)[C@@H](O[C@H]2C[C@@](C)(OC)[C@@H](O)[C@H](C)O2)[C@H](C)[C@@H](O[C@@H]2O[C@H](C)C[C@H](N(C)C)[C@H]2O)[C@](C)(O)C[C@@H](C)C(=O)[C@H](C)[C@@H](O)[C@]1(C)O [Erythromycin] | – | – | – | – | – | – | – | – | – | – | – | – | – | – | – | – | – | – | efflux ratio at 90 min, 10 μM [7]: 30.6; Papp A→B at 90 min, 10 μM [7, 16]: 0.46 ×10⁻⁶ cm/s; Papp A→B at 90 min, 10 μM [7, 17]: 0.5 ×10⁻⁶ cm/s; Papp A→B at 90 min, 10 μM [7, 18]: 0.48 ×10⁻⁶ cm/s; Papp B→A at 90 min, 10 μM [7, 19]: 13.8 ×10⁻⁶ cm/s; Papp B→A at 90 min, 10 μM [7, 20]: 15.5 ×10⁻⁶ cm/s; Papp B→A at 90 min, 10 μM [7, 21]: 14.7 ×10⁻⁶ cm/s
C=CC(=O)N1C[C@H](C)N(c2nc(=O)n(-c3c(C)ccnc3C(C)C)c3nc(-c4c(F)c(F)cc5ccoc45)c(F)cc23)C[C@H]1C (single isomer, unassigned) [Compound 91-1] | 100 to 500 nM | < 10 nM | 9710 ng·h/mL | 2970 ng/mL | 1.17 h | 2.72 h | 9680 ng·h/mL | 156 to 158 °C | 10 to 50 nM | 10 to 50 nM | – | – | – | – | – | – | – | – | –
C=CC(=O)N1C[C@H](C)N(c2nc(=O)n(-c3c(C)ccnc3C(C)C)c3nc(-c4c(F)ccc5ccoc45)c(Cl)cc23)C[C@H]1C (single isomer, unassigned) [Compound 90-1] | < 50 nM | < 10 nM | 13800 ng·h/mL | 3720 ng/mL | 1.33 h | 3.26 h | 13800 ng·h/mL | 175 to 177 °C | < 10 nM | < 10 nM | 1.08 | 20.1 ×10⁻⁶ cm/s | 20.4 ×10⁻⁶ cm/s | 20.2 ×10⁻⁶ cm/s | 18.6 ×10⁻⁶ cm/s | 25.2 ×10⁻⁶ cm/s | 21.9 ×10⁻⁶ cm/s | > 10 ×10⁻⁶ cm/s | Changes of body weight (%) [8]: 23.3%; tumor suppressor T/C value (%) [8]: −99.5%
C=CC(=O)N1CCN(c2nc(=O)n(-c3c(C)ccnc3C(C)C)c3nc(-c4c(F)c(F)cc5ccoc45)c(Cl)cc23)[C@@H](C)C1 (single isomer, unassigned) [Compound 103-1] | < 50 nM | < 10 nM | 6240 ng·h/mL | 2700 ng/mL | 1 h | 6.03 h | 6190 ng·h/mL | – | < 10 nM | < 10 nM | 2.08 | 12.1 ×10⁻⁶ cm/s | 10.7 ×10⁻⁶ cm/s | 11.4 ×10⁻⁶ cm/s | 19.7 ×10⁻⁶ cm/s | 27.8 ×10⁻⁶ cm/s | 23.7 ×10⁻⁶ cm/s | > 10 ×10⁻⁶ cm/s | –
COCCc1ccc(OCC(O)CNC(C)C)cc1 (stereo not drawn) [Metoprolol Tartrate] | – | – | – | – | – | – | – | – | – | – | – | – | – | – | – | – | – | – | efflux ratio at 90 min, 10 μM [7]: 0.93; Papp A→B at 90 min, 10 μM [7, 16]: 33.3 ×10⁻⁶ cm/s; Papp A→B at 90 min, 10 μM [7, 17]: 36.4 ×10⁻⁶ cm/s; Papp A→B at 90 min, 10 μM [7, 18]: 34.8 ×10⁻⁶ cm/s; Papp B→A at 90 min, 10 μM [7, 19]: 29.4 ×10⁻⁶ cm/s; Papp B→A at 90 min, 10 μM [7, 20]: 35.4 ×10⁻⁶ cm/s; Papp B→A at 90 min, 10 μM [7, 21]: 32.4 ×10⁻⁶ cm/s
